Results: PMC10003360, “Antiviral Effect of Ginsenosides rk1 against Influenza a Virus Infection by Targeting the Hemagglutinin 1-Mediated Virus Attachment” (International Journal of Molecular Sciences, 2023)

Molecular target: T1, HA1 (Influenza A virus (A/Puerto Rico/8/1934(H1N1)), UniProt P03452)
T1 construct: gene HA; HA1 subunit alone, cut from precursor HA0; purchased from Sino Biological; immobilised on sensor chip
Assay: biochemical
Format: binding

T1 sequence (P03452 18-342 limits assumed): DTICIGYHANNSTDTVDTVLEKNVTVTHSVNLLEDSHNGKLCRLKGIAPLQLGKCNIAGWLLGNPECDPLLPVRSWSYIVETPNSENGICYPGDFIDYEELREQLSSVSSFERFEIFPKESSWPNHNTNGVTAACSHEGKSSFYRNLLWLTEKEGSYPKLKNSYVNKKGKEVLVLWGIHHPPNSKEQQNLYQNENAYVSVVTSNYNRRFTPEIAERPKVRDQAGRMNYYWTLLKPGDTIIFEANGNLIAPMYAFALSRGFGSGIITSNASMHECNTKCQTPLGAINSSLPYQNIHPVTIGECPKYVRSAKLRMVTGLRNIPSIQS

## C=C(CCC=C(C)C)[C@H]1CC[C@]2(C)[C@@H]1[C@H](O)C[C@@H]1[C@@]3(C)CC[C@H](O[C@@H]4O[C@H](CO)[C@@H](O)[C@H](O)[C@H]4O[C@@H]4O[C@H](CO)[C@@H](O)[C@H](O)[C@H]4O)C(C)(C)[C@@H]3CC[C@]12C [G-rk1, ginsenoside rk1]
  Kd: 93.3 nM
